Patent US20060188938A1, “Compounds for inhibiting beta-amyloid production and methods of identifying the compounds” (priority 2005, published 2006)

Columns and labels:
[1] = tested on: β-amyloid production by 7W WT APP751 CHO cells; assay: Screening of NF-kB activation inhibitors, Aβ1-40 and Aβ1-42 ELISA (Example 3); type: cell-based, Chinese hamster; conditions: 24 hours (FIG. 6)
Protocol: Most of the compounds screened can be obtained as Calbiochem products from EMD Biosciences, Inc., La Jolla, Calif. R—and S-Niguldipine are available e.g., from Tocris Cookson Inc., Ellisville, Mo. CAPE and Artemisinin are available, e.g., as a Sigma product from Sigma-Aldrich Corp., St. Louis, Mo.
Each compound was dissolved in DMSO. 7W WT APP751 CHO cells overexpressing APP751 were plated into 96-well culture plates in 200 μL of culture medium. Each compound from the library was added to confluent cells to a final concentration of 500 nM, 1 μM, 5 μM, 10 μM and/or 30 μM. After 24 hours of treatment, culture medium was collected and dissolved 10-fold and 2-fold for measuring the level of Aβ1-40 and Aβ1-42, respectively. Aβ1-40 and Aβ1-42 were determined using commercially available ELISAs (Biosource, CA), following the recommendations of the manufacturer.

[2] = tested on: β-amyloid production by 7W WT APP751 CHO cells; assay: Screening of dihydropyridine compounds (Maybridge), Aβ1-40 and Aβ1-42 ELISA (Example 2); type: cell-based, Chinese hamster; conditions: 30 μM, 24 hours (FIGS. 5A-B)
Protocol: Dihydropyridine compounds were obtained from Maybridge (England). Each compound was dissolved in DMSO. 7W WT APP751 CHO cells overexpressing APP751 were plated into 96-well culture plates in 200 μL of culture medium. Each compound from the library was added to confluent cells to a final concentration of 30 μM. After 24 hours of treatment, culture medium was collected and dissolved 10-fold and 2-fold for measuring the level of Aβ1-40 and Aβ1-42, respectively. Aβ1-40 and Aβ1-42 were determined using commercially available ELISAs (Biosource, CA), following the recommendations of the manufacturer.

Structure (SMILES) | concentration of Aβ1-40 compared to controls [2] | concentration of Aβ1-42 compared to controls [2] | concentration of total β-amyloid (Aβ1-40+Aβ1-42) compared to controls [2] | further results
Nc1ccc2ncnc(NCCc3ccc(Oc4ccccc4)cc3)c2c1 [6-amino-4-(4-phenoxyphenylethylamino)quinazoline] |  |  |  | concentration of Aβ1-40 compared to controls ([1]; 500 nM): significantly decreased; concentration of Aβ1-42 compared to controls ([1]; 500 nM): significantly decreased; concentration of total β-amyloid compared to controls ([1]; 500 nM): significantly decreased; concentration of Aβ1-40 compared to controls ([1]; 5 μM): significantly decreased; concentration of Aβ1-42 compared to controls ([1]; 5 μM): significantly decreased; concentration of total β-amyloid compared to controls ([1]; 5 μM): significantly decreased
CCOC(=O)C1=C(C)NC(C)=C(C(=O)OCC)C1c1ccc(Cl)cc1 [BTB 14328, diethyl 4-(4-chlorophenyl)-2,6-dimethyl-1,4-dihydropyridine-3,5-dicarboxylate] | significantly decreased | significantly decreased | significantly decreased | 
CCOC(=O)C1=C(C)NC(C)=C(C(=O)OCC)C1c1ccc(-c2cc(C(F)(F)F)cc(C(F)(F)F)c2)o1 [CD 04170, diethyl 4-{5-[3,5-di(trifluoromethyl)phenyl]-2-furyl}-2,6-dimethyl-1,4-dihydro-pyridine-3,5-dicarboxylate] | significantly decreased | significantly decreased | significantly decreased | 
O=C1C=C(c2ccccc2)CN(C2CCCCC2)C1=O [HTS 01512, 1-cyclohexyl-5-phenyl-1,6-dihydro-2,3-pyridinedione] | significantly decreased | significantly decreased | significantly decreased | 
N#Cc1c(-c2cn(-c3ccccc3)nc2-c2ccccc2)cc(-c2ccccc2)[nH]c1=O [HTS 07578, 4-(1,3-diphenyl-1H-pyrazol-4-yl)-2-oxo-6-phenyl-1,2-dihydro-3-pyridinecarbonitrile] | significantly decreased | significantly decreased | significantly decreased | 
N#Cc1c(-c2cccs2)cc(-c2ccccc2)[nH]c1=O [HTS 10306, 2-oxo-6-phenyl-4-(2-thienyl)-1,2-dihydro-3-pyridinecarbonitrile] | significantly decreased | significantly decreased | significantly decreased | 
CCOC(=O)C1=C(C)NC(C)=C(C(=O)OCC)C1c1ccc(Br)cc1 [JFD 01209, diethyl 4-(4-bromophenyl)-2,6-dimethyl-1,4-dihydropyridine-3,5-dicarboxylate] | significantly decreased | significantly decreased | significantly decreased | 
CCOC(=O)C1=C(C)NC(C)=C(C(=O)OCC)C1c1ccc([N+](=O)[O-])cc1 [JFD 03266, diethyl 2,6-dimethyl-4-(4-nitrophenyl)-1,4-dihydropyridine-3,5-dicarboxylate] | significantly decreased |  | significantly decreased | 
CCOC(=O)C1=C(C)NC(C)=C(C(=O)OCC)C1c1cccc(Cl)c1 [JFD 03274, diethyl 4-(3-chlorophenyl)-2,6-dimethyl-1,4-dihydropyridine-3,5-dicarboxylate] | significantly decreased |  | significantly decreased | 
CCOC(=O)C1=C(C)NC(C)=C(C(=O)OCC)C1c1ccc(C)cc1 [JFD 03282, diethyl 2,6-dimethyl-4-(4-methylphenyl)-1,4-dihydropyridine-3,5-dicarboxylate] | significantly decreased | significantly decreased | significantly decreased | 
CC1=C(C#N)C(c2ccc(Cl)c(Cl)c2)C(C#N)=C(C)N1 [JFD 03292, 4-(3,4-dichlorophenyl)-2,6-dimethyl-1,4-dihydropyridine-3,5-dicarbonitrile] | significantly decreased |  | significantly decreased | 
COC(=O)C1=C(C)NC(C)=C(C(=O)OC)C1c1ccc(Cl)c(Cl)c1 [JFD 03293, dimethyl 4-(3,4-dichlorophenyl)-2,6-dimethyl-1,4-dihydropyridine-3,5-dicarboxylate] | significantly decreased | significantly decreased | significantly decreased | 
CCOC(=O)C1=C(C)NC(C)=C(C(=O)OCC)C1c1ccc(Cl)c(Cl)c1 [JFD 03294, diethyl 4-(3,4-dichlorophenyl)-2,6-dimethyl-1,4-dihydropyridine-3,5-dicarboxylate] | significantly decreased | significantly decreased | significantly decreased | 
CCOC(=O)C1=C(C)NC(C)=C(C(=O)OCC)C1c1ccccc1Cl [JFD 03305, diethyl 4-(2-chlorophenyl)-2,6-dimethyl-1,4-dihydropyridine-3,5-dicarboxylate] | significantly decreased | significantly decreased | significantly decreased | 
CCOC(=O)C1=C(C)NC(C)=C(C(=O)OCC)C1c1ccccc1[N+](=O)[O-] [JFD 03311, diethyl 2,6-dimethyl-4-(2-nitrophenyl)-1,4-dihydropyridine-3,5-dicarboxylate] | significantly decreased |  | significantly decreased | 
CCOC(=O)C1=C(C)NC(C)=C(C(=O)OCC)C1c1ccc(F)cc1 [JFD 03318, diethyl 4-(4-fluorophenyl)-2,6-dimethyl-1,4-dihydropyridine-3,5-dicarboxylate] | significantly decreased | significantly decreased | significantly decreased | 
O=C1CC(c2ccccc2)CC(=O)N1c1ccc(Oc2ccc(Cl)cc2)cc1 [PD 00463, 1-[4-(4-chlorophenoxy)phenyl]-4-phenyldihydropyridine-2,6(1H,3H)-dione] | significantly decreased | significantly decreased | significantly decreased | 
CCOC(=O)C1=C(C)NC(C)=C(C(=O)OCC)C1c1ccc(Cl)cc1Cl [RJC 03403, diethyl 4-(2,4-dichlorophenyl)-2,6-dimethyl-1,4-dihydro-3,5-pyridinedicarboxylate] | significantly decreased | significantly decreased | significantly decreased | 
CCOC(=O)C1=C(C)NC(C)=C(C(=O)OCC)C1c1ccc(-c2ccccc2C(F)(F)F)o1 [RJC 03405, diethyl 2,6-dimethyl-4-{5-[2-(trifluoromethyl)phenyl]-2-furyl}-1,4-dihydro-3,5-pyridinedicarboxylate] | significantly decreased |  | significantly decreased | 
CCOC(=O)C1=C(C)NC(C)=C(C(=O)OCC)C1c1ccc(OC)cc1Cl [RJC 03413, diethyl 4-(2-chloro-4-methoxyphenyl)-2,6-dimethyl-1,4-dihydro-3,5-pyridinedicarboxylate] | significantly decreased |  | significantly decreased | 
COC(=O)C1=C(C)NC(C)=C(C(=O)OC)C1c1ccc(Cl)cc1Cl [RJC 03423, dimethyl 4-(2,4-dichlorophenyl)-2,6-dimethyl-1,4-dihydro-3,5-pyridinedicarboxylate] | significantly decreased | significantly decreased | significantly decreased | 
COC(=O)C1=C(C)NC(C)=C(C(=O)OC)C1c1ccc(-c2ccsc2C(=O)OC)o1 [SEW 02070, dimethyl 4-{5-[2-(methoxycarbonyl)-3-thienyl]-2-furyl}-2,6-dimethyl-1,4-dihydropyridine-3,5-dicarboxylate] | significantly decreased |  | significantly decreased | 
CCOC(=O)C1=C(C)NC(C)=C(C(=O)OCC)C1c1cccc([N+](=O)[O-])c1 [XBX 00343, diethyl 2,6-dimethyl-4-(3-nitrophenyl)-1,4-dihydropyridine-3,5-dicarboxylate] | significantly decreased |  | significantly decreased | 
